For ten compounds, MIC results are on record in DBAASP.

Each structure is given as a SMILES string. In brackets after ≈: the same amount, converted by molar mass.

Among the test systems are Escherichia coli B; Pseudomonas aeruginosa; Staphylococcus aureus; Bacillus subtilis 168; Escherichia coli BL21; Enterococcus faecalis; Escherichia coli; Acinetobacter baumannii; Klebsiella pneumoniae.
Common to all, as to assay: ≥ marks a high value that may be exact or a test limit, other limits are often not marked, values filed in µg/mL are converted to µM
The test system of assay [1] is Bacillus subtilis ATCC 6633.
Assay [2] concerns Staphylococcus aureus ATCC 6538.
The test system of assay [3] is Candida albicans ATCC 90028.
The test system of assay [4] is Staphylococcus aureus ATCC 43300.
Assay [5] has as its system Escherichia coli ATCC 8739.
In assay [6] the test system is Staphylococcus aureus ATCC 25923.
Assay [7] has as its system Escherichia coli KCTC 1682.
The test system of assay [8] is Staphylococcus aureus KCTC 1621.
Assay [9] relates to Salmonella typhimurium KCTC 1926.
For assay [10], the system named is Bacillus subtilis KCTC 3068.
Assay [11] has as its system Staphylococcus epidermidis.

The MIC is the smallest concentration in the dilution series that meets the test's criterion for growth inhibition. A low value points to a more susceptible organism. For the compound `CC[C@H](C)[C@H](NC(=O)[C@H](CO)NC(=O)[C@H](CC(C)C)NC(=O)[C@H](Cc1ccccc1)NC(=O)CN)C(=O)N[C@@H](CC(C)C)C(=O)N[C@@H](CCCCN)C(=O)N[C@@H](CCCCN)C(=O)N[C@H](C(=O)N[C@@H](CC(C)C)C(=O)N1CCC[C@H]1C(=O)N[C@@H](CCCCN)C(=O)N[C@H](C(=O)N[C@@H](CCSC)C(=O)N[C@@H](C)C(=O)N[C@@H](Cc1cnc[nH]1)C(=O)N[C@@H](CCSC)C(=O)N[C@@H](CCCCN)C(N)=O)C(C)C)C(C)C` [GFLSILKKVLPKVMAHMK], the MIC against Escherichia coli B stood at 1 µM (≈ 2.04 µg/mL); against Pseudomonas aeruginosa it was 22 µM (≈ 44.9 µg/mL); in the assay on Staphylococcus aureus it was 40 µM (≈ 81.6 µg/mL); against Bacillus subtilis 168, 0.62 µM (≈ 1.26 µg/mL).

With `CC[C@H](C)[C@@H]1NC(=O)[C@H](CCCCN)NC(=O)[C@@H](NC(=O)[C@H](CCCCN)NC(=O)[C@H](CC(C)C)NC(=O)[C@H](CCCCN)NC(=O)[C@H](CC(=O)O)NC(=O)[C@H](CC(C)C)NC(=O)[C@H](CC(C)C)NC(=O)[C@@H](NC(=O)[C@@H](NC(=O)[C@H](C)NC(=O)[C@@H](NC(=O)[C@H](CC(N)=O)NC(=O)[C@H](CCCCN)NC(=O)[C@H](C)NC(=O)[C@@H](NC(=O)[C@H](CC(N)=O)NC(=O)[C@H](CCCCN)NC(=O)[C@H](C)NC(=O)[C@@H](NC(=O)[C@H](CC(=O)O)NC(=O)[C@H](CCSC)NC(=O)[C@H](Cc2ccccc2)NC(=O)CN)[C@@H](C)O)C(C)C)C(C)C)C(C)C)[C@@H](C)O)CSSC[C@@H](C(=O)O)NC(=O)CNC(=O)CNC(=O)[C@H]([C@@H](C)O)NC1=O` [GFMDTAKNVAKNVAVTLLDKLKCKITGGC], the minimum inhibitory concentration (MIC) is 12.5 µM (≈ 38 µg/mL) in [1]; 25 µM (≈ 75.9 µg/mL) in assay [2]; no less than 100 µM in assay [3]; 100 µM (≈ 304 µg/mL) in assay [4]; no less than 100 µM in [5].

Turning to `CC[C@H](C)[C@H](NC(=O)[C@H](Cc1cnc[nH]1)NC(=O)[C@H](CCCCN)NC(=O)[C@H](CC(C)C)NC(=O)[C@H](CCCCN)NC(=O)[C@H](CO)NC(=O)[C@H](CCSC)NC(=O)[C@H](Cc1c[nH]c2ccccc12)NC(=O)[C@H](CCCCN)NC(=O)CN)C(=O)N[C@@H](CC(C)C)C(=O)N[C@@H](CCCCN)C(N)=O` [GKWMSKLKHILK], the MIC is no less than 45 µM in the assay on Escherichia coli B, greater than 100 µM in the assay with Pseudomonas aeruginosa, greater than 100 µM in the assay on Staphylococcus aureus and 3.7 µM (≈ 5.43 µg/mL) against Bacillus subtilis 168.

As to `CSCC[C@H](N)C(=O)N[C@@H](CO)C(=O)N[C@@H](C)C(=O)N[C@@H](CCC(=O)O)C(=O)N[C@H](C(=O)N[C@H](C(=O)N[C@H](C(=O)N[C@@H](CCCCN)C(=O)N[C@@H](CCCCN)C(=O)N[C@H](C(=O)N[C@@H](CC(=O)O)C(=O)NCC(=O)N[C@@H](CC(=O)O)C(=O)N[C@@H](C)C(=O)N[C@@H](CC(C)C)C(=O)N[C@@H](CCC(=O)O)C(=O)N[C@@H](CC(C)C)C(=O)NCC(=O)O)C(C)C)C(C)C)C(C)C)C(C)C` [MSAEVVVKKVDGDALELG], the MIC in assay [6] was greater than 138 µM; in assay [5], no less than 138 µM.

Regarding `CC[C@H](C)[C@H](NC(=O)[C@H](CCCCN)NC(=O)[C@H](C)NC(=O)[C@@H](NC(=O)[C@@H](NC(=O)[C@H](CCCN=C(N)N)NC(=O)[C@H](C)NC(=O)[C@H](CC(C)C)NC(=O)[C@@H](NC(=O)[C@H](CCCCN)NC(=O)[C@H](C)NC(=O)[C@H](C)NC(=O)[C@H](Cc1ccccc1)NC(=O)[C@H](CC(C)C)NC(=O)[C@H](CCCCN)NC(=O)[C@H](CCCCN)NC(=O)[C@H](CCSC)NC(=O)[C@@H]1CCCN1)[C@@H](C)CC)C(C)C)C(C)C)C(=O)N[C@@H](Cc1c[nH]c2ccccc12)C(=O)O` [PMKKLFAAKILARVVAKIW], the MIC in assay [6] was greater than 117 µM; in [5], 14.7 µM (≈ 32 µg/mL).

Take `CC[C@H](C)[C@H](NC(=O)CNC(=O)[C@H](CCCCN)NC(=O)[C@H](CC(C)C)NC(=O)[C@@H](NC(=O)[C@H](CC(C)C)NC(=O)[C@H](CC(N)=O)NC(=O)[C@H](CCCCN)NC(=O)[C@@H](NC(=O)[C@H](C)NC(=O)[C@H](CCCCN)NC(=O)CNC(=O)CNC(=O)[C@@H](NC(=O)[C@H](CCCCN)NC(=O)[C@H](CO)NC(=O)[C@H](Cc1ccccc1)NC(=O)[C@@H](NC(=O)[C@@H](N)CCCN=C(N)N)[C@@H](C)CC)[C@@H](C)CC)[C@@H](C)CC)[C@@H](C)CC)C(=O)N[C@@H](CCCCN)C(=O)N[C@@H](CC(N)=O)C(=O)N[C@H](C(=O)NCC(=O)N[C@@H](CCCCN)C(=O)N[C@@H](CCC(=O)O)C(=O)N[C@H](C(=O)NCC(=O)N[C@@H](CCSC)C(=O)N[C@@H](CC(=O)O)C(=O)N[C@H](C(=O)N[C@H](C(=O)N[C@@H](CCCN=C(N)N)C(=O)N[C@H](C(=O)NCC(=O)N[C@H](C(=O)N[C@@H](CC(=O)O)C(=O)N[C@H](C(=O)N[C@@H](C)C(=O)NCC(=O)N[C@H]1CSSC[C@@H](C(=O)O)NC(=O)[C@H](CCC(=O)O)NC(=O)CNC(=O)[C@H](CCCCN)NC(=O)[C@H]([C@@H](C)CC)NC(=O)[C@H](CCCCN)NC1=O)C(C)C)[C@@H](C)CC)[C@@H](C)O)[C@@H](C)CC)C(C)C)C(C)C)[C@@H](C)CC` [RIFSKIGGKAIKNLILKGIKNIGKEVGMDVIRTGIDVAGCKIKGEC]: the MIC in assay [1] was 12.5 µM (≈ 61 µg/mL); in [2], 3.1 µM (≈ 15.1 µg/mL); in [3], no less than 50 µM; in assay [4] it was 12.5 µM (≈ 61 µg/mL); in assay [5], 3.1 µM (≈ 15.1 µg/mL).

In the case of `CC[C@H](C)[C@H](NC(=O)[C@H](C)NC(=O)[C@H](CC(C)C)NC(=O)[C@H](CC(=O)O)NC(=O)[C@H](CCCCN)NC(=O)[C@H](Cc1ccccc1)NC(=O)[C@@H](NC(=O)[C@@H](NC(=O)[C@H](CC(C)C)NC(=O)[C@H](Cc1ccccc1)NC(=O)[C@@H](N)CO)[C@@H](C)O)[C@@H](C)O)C(=O)N[C@@H](CCCCN)C(=O)N[C@@H](C)C(=O)N[C@@H](C)C(=O)N[C@@H](CCCCN)C(=O)N[C@@H](CO)C(=O)N[C@@H](C)C(=O)NCC(=O)N[C@@H](CCC(N)=O)C(=O)N[C@@H](CO)C(=O)N[C@H](C(=O)N[C@@H](CC(C)C)C(=O)N[C@@H](CO)C(=O)N[C@H](C(=O)N[C@@H](CC(C)C)C(=O)N[C@@H](CO)C(=O)N[C@H]1CSSC[C@@H](C(=O)O)NC(=O)[C@H]([C@@H](C)O)NC(=O)[C@H](CC(N)=O)NC(=O)[C@H](CO)NC(=O)[C@H](CC(C)C)NC(=O)[C@H](CCCCN)NC1=O)[C@@H](C)O)C(C)C` [SFLTTFKDLAIKAAKSAGQSVLSTLSCKLSNTC], the MIC stood at 25 µM (≈ 85.8 µg/mL) in assay [1], 6.3 µM (≈ 21.6 µg/mL) in assay [2] and 12.5 µM (≈ 42.9 µg/mL) in assay [5].

The compound `CC[C@H](C)[C@H](NC(=O)[C@@H]1CCCN1C(=O)[C@H](CC(C)C)NC(=O)[C@H](Cc1ccc(O)cc1)NC(=O)[C@H](Cc1cnc[nH]1)NC(=O)[C@H](C)NC(=O)CNC(=O)[C@H](C)NC(=O)[C@@H](NC(=O)[C@H](C)NC(=O)[C@H](CS)NC(=O)[C@H](C)NC(=O)[C@@H]1CCCN1C(=O)CNC(=O)[C@H](CS)NC(=O)[C@@H](NC(=O)[C@@H](NC(=O)CNC(=O)CNC(=O)[C@@H](N)C(C)C)[C@@H](C)O)[C@@H](C)CC)C(C)C)C(=O)O` [VGGTICGPACAVAGAHYLPI] registered an MIC in the assay on Escherichia coli BL21 of no less than 128 µM.

On to `CC(C)C[C@H](NC(=O)[C@H](Cc1ccccc1)NC(=O)[C@@H]1CCCN1C(=O)[C@H](Cc1c[nH]c2ccccc12)NC(=O)[C@H](Cc1c[nH]c2ccccc12)NC(=O)[C@H](Cc1c[nH]c2ccccc12)NC(=O)[C@@H]1CCCN1C(=O)[C@H](Cc1ccccc1)NC(=O)[C@H](CCCNC(=N)N)NC(=O)[C@H](CCCNC(=N)N)NC(=O)[C@@H](N)C(C)C)C(=O)N[C@@H](CCCNC(=N)N)C(=O)N[C@@H](CCCNC(=N)N)C(=O)O` [VRRFPWWWPFLRR], for which the minimum inhibitory concentration (MIC) in [7] was no less than 33.6 µM; in assay [8], 8.41 µM (≈ 16 µg/mL); in [9] it was 16.8 µM (≈ 32 µg/mL); in [10], 8.41 µM (≈ 16 µg/mL).

In the case of `CC[C@H](C)[C@H](NC(=O)CNC(=O)[C@H](CCCN=C(N)N)NC(=O)[C@H](Cc1ccc(O)cc1)NC(=O)[C@H](CC(C)C)NC(=O)[C@H](CCCCN)NC(=O)CNC(=O)[C@H](Cc1ccccc1)NC(=O)[C@@H](N)Cc1c[nH]c2ccccc12)C(=O)N[C@H](C(=O)N[C@@H](CCCCN)C(=O)N[C@H](C(=O)N[C@H](C(=O)N[C@@H](CCCCN)C(=O)N[C@@H](CCCCN)C(=O)N[C@H](C(=O)N[C@@H](CCCCN)C(=O)NCC(=O)N[C@@H](CC(C)C)C(=O)N[C@@H](CC(C)C)C(=O)N[C@@H](CCCCN)C(=O)NCC(=O)O)C(C)C)C(C)C)C(C)C)[C@@H](C)O` [WFGKLYRGITKVVKKVKGLLKG], the minimum inhibitory concentration (MIC) against Pseudomonas aeruginosa was found to be 1.3 µM (≈ 3.27 µg/mL); in the assay with Staphylococcus aureus, 9.9 µM (≈ 24.9 µg/mL); in the assay on Enterococcus faecalis, 1.2 µM (≈ 3.02 µg/mL); in assay [11] it was 1.2 µM (≈ 3.02 µg/mL); in the assay with Escherichia coli, 1.2 µM (≈ 3.02 µg/mL); against Acinetobacter baumannii, 0.6 µM (≈ 1.51 µg/mL). Further, the minimal inhibitory concentration (MIC) in the assay with Klebsiella pneumoniae is 0.6 µM (≈ 1.51 µg/mL).
